Assay results published in publication PMC7470138, “Novel heterocyclic hybrids of pyrazole targeting dihydrofolate reductase: design, biological evaluation and in silico studies” (Journal of Enzyme Inhibition and Medicinal Chemistry, 2020).
In brackets after ≈: the same amount, converted by molar mass.

Columns and labels:
[1] = test system: all tested strains (S. pneumoniae, B. subtilis, P. aeruginosa, E. coli, A. fumigates, C. albicans); assay: Antimicrobial sensitivity assay, agar well diffusion (inhibition zone); assay type: cell-based; settings: tested bacteria and fungi
Experimental: (§1) Solutions of concentrations (1 µg/mL) of the target compounds were used. […] The diameter of inhibition zone (mm) was measured for the biologically activity using the diffusion technique[35]. […] The different concentrations (triplicate) of each compound were tested and compared with standard drugs.
The screening was done for the in vitro antibacterial activity against Gram-positive Streptococcus pneumoniae and Bacillus subtilis, and Gram-negative Pseudomonas aeruginosa and Escherichia coli, and for the in vitro antifungal activity against Aspergillus fumigates and Candida albicans.

[2] = test system: E. coli RCMB 010052; assay: Minimum inhibitory concentration (MIC), antibacterial; assay type: cell-based; settings: Escherichia coli, RCMB010052; E. coli RCMB 010052, Gram-negative; mean of three values; read-out: MIC (Mean ± SEM)
Experimental: as §1

[3] = test system: P. aeruginosa RCMB 010043; assay: as above; assay type: cell-based; settings: Pseudomonas aeruginosa, RCMB010043; P. aeruginosa RCMB 010043, Gram-negative; mean of three values; read-out: MIC (Mean ± SEM)
Experimental: as §1

[4] = test system: C. albicans RCMB 005036; assay: Minimum inhibitory concentration (MIC), antifungal; assay type: cell-based; settings: Candida albicans, RCMB005036; C. albicans RCMB 005036, fungi; mean of three values; read-out: MIC (Mean ± SEM)
Experimental: Solutions of concentrations (1 µg/mL) of the target compounds were used. […] The different concentrations (triplicate) of each compound were tested and compared with standard drugs.

[5] = test system: A. fumigatus RCMB 002568; assay: Minimum inhibitory concentration (MIC), antifungal; assay type: cell-based, Aspergillus fumigates; settings: A. fumigatus RCMB 002568, fungi, mean of three values; for MIC: Aspergillus fumigatus, RCMB002568, read-out: MIC (Mean ± SEM)
Experimental: as §1

[6] = test system: S. pneumonia RCMB 010010; assay: Minimum inhibitory concentration (MIC), antibacterial; assay type: cell-based, Streptococcus pneumoniae; settings: S. pneumonia RCMB 010010, Gram-positive, mean of three values; for MIC: Streptococcus pneumoniae, RCMB010010, read-out: MIC (Mean ± SEM)
Experimental: as §1

[7] = test system: B. subtilis RCMB 010067; assay: as above; assay type: cell-based; settings: Bacillus subtilis, RCMB010067; B. subtilis RCMB 010067, Gram-positive; mean of three values; read-out: MIC (Mean ± SEM)
Experimental: as §1

[8] = molecular target: T1, dihydrofolate reductase (DHFR) (Homo sapiens, UniProt P00374); assay: In vitro enzyme assay on dihydrofolate reductase (DHFR); assay type: biochemical; settings: absorbance at 340 nm, 22 °C, mean of three values, read-out: IC50 (Mean ± SEM) DHFR
T1 sequence (P00374 1-187): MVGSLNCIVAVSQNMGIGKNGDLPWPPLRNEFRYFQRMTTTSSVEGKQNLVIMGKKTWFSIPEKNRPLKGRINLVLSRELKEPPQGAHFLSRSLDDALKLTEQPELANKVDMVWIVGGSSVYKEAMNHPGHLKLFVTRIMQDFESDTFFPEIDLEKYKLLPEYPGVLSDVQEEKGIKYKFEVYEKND

| Compound | antimicrobial activity (in words) [1] | melting point [°C] | MIC [2] [µg/mL] | MIC [3] [µg/mL] | MIC [4] [µg/mL] | MIC [5] [µg/mL] | MIC [6] [µg/mL] | MIC [7] [µg/mL] | IC50 [8] [µM] | MIC (Mean ± SEM) [6] [µg/mL] | MIC (Mean ± SEM) [5] [µg/mL] |
| --- | --- | --- | --- | --- | --- | --- | --- | --- | --- | --- | --- |
| Cc1nnc2c(C#N)c(N)n(-c3cccc4ccccc34)nc1-2 [Compound 6c, 6-Amino-3-methyl-5-(naphthalen-1-yl)-5H-pyrazolo[4,3-c]pyridazine-7-carbonitrile] | either inactive or less active | 288 to 290 | – | – | – | – | – | – | – | – | – |
| Cc1n[nH]c2c(C#N)c(=O)n(-c3cccc4ccccc34)nc12 [Compound 6d, 3-Methyl-5-(naphthalen-1-yl)-6-oxo-5,6-dihydro-1H-pyrazolo[4,3-c]pyridazine-7-carbonitrile] | either inactive or less active | 282 to 284 | – | – | – | – | – | – | – | – | – |
| CC1=NNC(=O)C1=NNc1cccc2ccccc12 [Compound 3b, 5-Methyl-4–(2-(naphthalene-1-yl)hydrazineylidene)-2,4-dihydro-3H-pyrazol-3-one] | – | 189 to 191 | 250 ± 0.5 (≈ 991 µM) | 125 ± 0.3 (≈ 495 µM) | 62.5 ± 0.1 (≈ 248 µM) | 125 ± 0.2 (≈ 495 µM) | 7.81 ± 0.1 (≈ 31 µM) | 15.6 ± 0.5 (≈ 62 µM) | 18.3 ± 0.81 | – | – |
| O=C(O)c1cn(C2CC2)c2cc(N3CCNCC3)c(F)cc2c1=O [Ciprofloxacin, reference compound] | – | – | 0.01 ± 0.1 (≈ 0.0302 µM) | 0.5 ± 0.05 (≈ 1.51 µM) | – | – | 0.98 ± 0.2 (≈ 2.96 µM) | 0.1 ± 0.3 (≈ 0.302 µM) | – | 0.98 (≈ 2.96 µM) | – |
| Cc1n[nH]c2c(C#N)c(=O)n(-c3ccc(S(N)(=O)=O)cc3)nc12 [Compound 6b, 4-(7-Cyano-3-methyl-6-oxo-1,6-dihydro-5H-pyrazolo[4,3-c]pyridazin-5-yl)benzenesulphonamide] | highly active | – | 0.98 ± 0.1 (≈ 2.97 µM) | 62.5 ± 0.3 (≈ 189 µM) | 7.81 ± 0.05 (≈ 23.6 µM) | 1.95 ± 0.3 (≈ 5.9 µM) | 1.95 ± 0.4 (≈ 5.9 µM) | 0.98 ± 0.1 (≈ 2.97 µM) | 5.24 ± 0.37 | 1.95 (≈ 5.9 µM) | 1.95 (≈ 5.9 µM) |
| Cc1nnc2n(-c3ccccc3)c(=S)n(-c3ccc(S(N)(=O)=O)cc3)nc1-2 [Compound 8a, 4-(7-Methyl-4-phenyl-3-thioxo-3,4-dihydro-2H-pyrazolo[3,4-e][1,2,4]triazin-2-yl)benzenesulphonamide] | highly active | 275 to 277 | 62.5 ± 0.3 (≈ 157 µM) | 125 ± 0.3 (≈ 314 µM) | 62.5 ± 0.5 (≈ 157 µM) | 3.9 ± 0.1 (≈ 9.79 µM) | 15.6 ± 0.5 (≈ 39.2 µM) | 125 ± 0.4 (≈ 314 µM) | 1.36 ± 0.12 | – | – |
| Cc1n[nH]c2nn(-c3ccc(S(N)(=O)=O)cc3)nc12 [Compound 9a, 4-(6-Methylpyrazolo[3,4-d][1,2,3]triazol-2(4H)-yl)benzenesulphonamide] | highly active | > 300 | 1.95 ± 0.3 (≈ 7.01 µM) | 15.6 ± 0.5 (≈ 56.2 µM) | 7.81 ± 0.2 (≈ 28.1 µM) | 250 ± 0.2 (≈ 898 µM) | 3.9 ± 0.3 (≈ 14 µM) | 1.95 ± 0.08 (≈ 7.01 µM) | 1.45 ± 0.23 | – | – |
| C[C@@H]1[C@H](O)[C@@H](C)/C=C/C=C/C=C/C=C/C=C/C=C/C=C/[C@H](O[C@@H]2O[C@H](C)[C@@H](O)[C@H](N)[C@@H]2O)C[C@@H]2O[C@](O)(C[C@@H](O)C[C@@H](O)[C@H](O)CC[C@@H](O)C[C@@H](O)CC(=O)O[C@H]1C)C[C@H](O)[C@H]2C(=O)O [Amphotericin B, reference compound] | – | – | – | – | 3.9 ± 0.1 (≈ 4.22 µM) | 1.95 ± 0.3 (≈ 2.11 µM) | – | – | – | – | 1.95 (≈ 2.11 µM) |
| CC1=NNC(=O)C1=NNc1ccc(S(N)(=O)=O)cc1 [Compound 3a, 4-(2-(3-Methyl-5-oxo-1,5-dihydro-4H-pyrazol-4-ylidene)hydrazineyl)benzenesulfonamide] | – | – | 0.98 ± 0.6 (≈ 3.48 µM) | 7.81 ± 0.3 (≈ 27.8 µM) | 3.9 ± 0.3 (≈ 13.9 µM) | 1.95 ± 0.1 (≈ 6.93 µM) | 1.95 ± 0.3 (≈ 6.93 µM) | 0.98 ± 0.1 (≈ 3.48 µM) | – | 1.95 (≈ 6.93 µM) | 1.95 (≈ 6.93 µM) |
| Cc1n[nH]c2nn(-c3cccc4ccccc34)nc12 [Compound 9b, 6-Methyl-2-(naphthalen-1-yl)-2,4-dihydropyrazolo[3,4-d][1,2,3]triazole] | either inactive or less active | > 300 | – | – | – | – | – | – | – | – | – |
| Cc1nnc2n(-c3ccccc3)c(=S)n(-c3cccc4ccccc34)nc1-2 [Compound 8b, 7-Methyl-2-(naphthalen-1-yl)-4-phenyl-2,4-dihydro-3H-pyrazolo[3,4-e][1,2,4]triazine-3-thione] | either inactive or less active | 257 to 259 | – | – | – | – | – | – | – | – | – |
| Cc1nnc2c(C#N)c(N)n(-c3ccc(S(N)(=O)=O)cc3)nc1-2 [Compound 6a, 4-(6-Amino-7-cyano-3-methyl-5H-pyrazolo[4,3-c]pyridazin-5-yl)benzenesulphonamide] | highly active | – | 0.49 ± 0.4 (≈ 1.49 µM) | 3.9 ± 0.1 (≈ 11.8 µM) | 3.9 ± 0.03 (≈ 11.8 µM) | 0.98 ± 0.2 (≈ 2.98 µM) | 0.98 ± 0.1 (≈ 2.98 µM) | 0.49 ± 0.2 (≈ 1.49 µM) | – | – | – |
